Consider three compounds from patent US20110086862A1, “POLYMORPHS OF PARDOPRUNOX” (priority 2009, published 2011).

The target of series [1] is T1, serotonin 5-HT1A receptor (Homo sapiens, UniProt P08908).
T1 sequence (P08908 1-422): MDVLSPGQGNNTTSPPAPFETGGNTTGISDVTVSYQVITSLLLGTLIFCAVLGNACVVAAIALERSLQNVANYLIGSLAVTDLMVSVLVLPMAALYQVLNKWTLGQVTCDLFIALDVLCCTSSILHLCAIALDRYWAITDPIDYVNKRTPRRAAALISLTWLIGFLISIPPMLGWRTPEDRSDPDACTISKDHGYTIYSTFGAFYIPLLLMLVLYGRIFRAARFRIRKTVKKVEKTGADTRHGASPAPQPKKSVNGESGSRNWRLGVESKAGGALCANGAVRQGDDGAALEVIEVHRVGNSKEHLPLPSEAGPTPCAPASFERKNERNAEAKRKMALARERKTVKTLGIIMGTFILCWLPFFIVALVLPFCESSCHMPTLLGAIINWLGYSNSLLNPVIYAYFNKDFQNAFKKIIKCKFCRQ
Conditions: cited from earlier work.

Series [2] addresses dopamine-D2 receptor (Homo sapiens, UniProt P14416). Particulars: cited from earlier work.
A short description of series [3]: Stability tests: relative stability from ageing and slurry experiments. It is filed as physicochemical. Conditions: for Relative stability of the polymorphs: at the applied experimental conditions (ageing and slurry), hydrochloride; for Conversion from β- to α-polymorph: ageing and slurry, ambient temperature and 50° C. Here is the method: (§1) Relative stability of the α- and β-polymorphs of pardoprunox were determined by ageing and slurry experiments in six different solvents. The crystal modification of the solid material was determined using XRPD. For mixtures, amounts of α and β were determined using semi-quantitative calculations, based on the ratio of peak heights of specific reflections of the α- and β-polymorphs, respectively. A peak at 23.3° 2θwas used for α-polymorphs, and one at 15.3° 2θfor β-polymorphs. Due to effects of sample preparation, crystal orientation and differences in response factors, this estimation is semi-quantitative.
(§2) For ageing experiments, two series of saturated solutions of a specific polymorphic (α or β) form were shaken at 375 rpm, for one week, in six different solvents, one series at ambient temperature (ca. 20° C.) and one at 50° C. 40 ml tubes were filled with 0.5 g of the appropriate polymorphic form, and 25 ml of solvent (or mixture). After a week the precipitate was filtered and dried at ambient temperature under reduced pressure.
(§3) For slurry experiments, two series of saturated solutions of a specific polymorphic (α or β) form were shaken at 375 rpm for one day in six different solvents, one series at ambient temperature and one at 50° C. 40 ml tubes were filled with 0.5 g of the appropriate polymorphic form, and 25 ml of solvent (or mixture). After 1 day about 2.5 ml of sample was taken from each tube, filtered and dried at ambient temperature under reduced pressure. Subsequently the crystal modification was determined. After the samples were taken each tube was seeded with 15-20 mg of the other polymorphic form. Then, all tubes were shaken for 1 week at 375 rpm at ambient temperature or at 50° C. Finally, the precipitate was filtered and dried at ambient temperature under reduced pressure and the crystal modification was determined.

A short description of series [4]: Slurry experiments of α- and β-polymorphs (crystal modification by XRPD). Conditions: for Crystal modifications by XRPD, slurry experiment: before/after seeding not distinguished; for Crystal modifications by XRPD, slurry experiment, after seeding: seeded with 15-20 mg of the other form, shaken 1 week; for Crystal modifications by XRPD, slurry experiment, before seeding: shaken 1 day. The format is physicochemical. As to the method: as §1, §3

A short description of series [5]: Ageing experiments of α- and β-polymorphs (crystal modification by XRPD). The format is physicochemical. Conditions: shaken one week. As to the method:
as §1, §2

Where [6] appears, read: toluene/methanol (10:3), 50° C.
[7] abbreviates: toluene/methanol (10:3), ambient.

Structures are written as SMILES.

Chain of dopamine-D2 receptor (P14416 whole entry, species assumed): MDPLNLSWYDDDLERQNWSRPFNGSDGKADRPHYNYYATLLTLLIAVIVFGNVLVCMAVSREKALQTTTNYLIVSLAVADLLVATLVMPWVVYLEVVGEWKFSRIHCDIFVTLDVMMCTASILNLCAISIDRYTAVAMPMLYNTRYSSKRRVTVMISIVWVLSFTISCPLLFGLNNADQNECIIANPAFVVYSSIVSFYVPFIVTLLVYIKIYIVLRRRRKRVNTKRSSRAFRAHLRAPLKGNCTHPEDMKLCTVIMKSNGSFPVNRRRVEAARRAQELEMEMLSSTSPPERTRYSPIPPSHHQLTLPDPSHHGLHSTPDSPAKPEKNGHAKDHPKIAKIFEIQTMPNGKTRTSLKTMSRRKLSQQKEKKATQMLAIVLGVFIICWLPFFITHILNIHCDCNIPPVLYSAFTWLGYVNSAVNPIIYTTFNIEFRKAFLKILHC

With `CN1CCN(c2cccc3[nH]c(=O)oc23)CC1.Cl` [pardoprunox, 7-(4-methyl-1-piperazinyl)benzoxazol-2(3H)-one mono-hydrochloride], the “Functional activity at serotonin 5-HT1A receptor” value in series [1] is listed as “full serotonin 5-HT1A receptor agonist”. The “Functional activity at dopamine-D2 receptor” value in series [2] is on record as “partial dopamine-D2 receptor agonist”.
For the compound `CN1CCN(c2cccc3[nH]c(=O)oc23)CC1.Cl` [α-polymorph, 7-[(4-methyl)-1-piperazinyl]-2(3H)-benzoxazolone hydrochloride], in series [3] (ageing and slurry experiments, all solvents), the “Conversion from α- to β-polymorph” value is given as “Neither in ageing nor in slurry experiments, was conversion from α- to β-polymorph observed”. Also, the “Relative stability of the polymorphs” value in series [3] (listed as a-polymorph) was “more stable than the β-polymorph”; in series [3] (listed as crystal modification a) it was “more stable than crystal modification β”. In addition, the “Crystal modifications by XRPD, slurry experiment” value in series [4] (1,2-dimethoxy ethane, 50° C.) is “α”; in series [4] (1,2-dimethoxy ethane, ambient), “α”; in series [4] (96% ethanol, 50° C.) it was “α”; in series [4] (acetonitrile, 50° C.), “α”; in series [4] (acetonitrile, ambient) it was “α”; in series [4] (ethyl acetate/isopropanol (2:1), 50° C.) it was “α”. Also, the “Crystal modifications by XRPD, slurry experiment” value was “α” in series [4] (ethyl acetate/isopropanol (2:1), ambient); “α” in series [4] (methyl ethyl ketone, 50° C.); “α” in series [4] (methyl ethyl ketone, ambient); “α” in series [4] (setting [6]); “α” in series [4] (setting [7]). For the same compound, the “Crystal modifications by XRPD after ageing” value in series [5] (1,2-dimethoxy ethane, 50° C., hydrochloride) is given as “α”; in series [5] (1,2-dimethoxy ethane, ambient, hydrochloride) it was “α”; in series [5] (96% ethanol, 50° C.) it was “α”; in series [5] (acetonitrile, 50° C., hydrochloride), “α”; in series [5] (acetonitrile, ambient, hydrochloride) it was “α”; in series [5] (ethyl acetate/isopropanol (2:1), 50° C., hydrochloride), “α”. Also, the “Crystal modifications by XRPD after ageing” value is given as “α” in series [5] (ethyl acetate/isopropanol (2:1), ambient, hydrochloride); “α” in series [5] (methyl ethyl ketone, 50° C., hydrochloride); “α” in series [5] (methyl ethyl ketone, ambient, hydrochloride); “α” in series [5] (setting [6]); “α” in series [5] (setting [7]).
Take `CN1CCN(c2cccc3[nH]c(=O)oc23)CC1.Cl` [β-polymorph, 7-[(4-methyl)-1-piperazinyl]-2(3H)-benzoxazolone hydrochloride]: the “Conversion from β- to α-polymorph” value in series [3] (acetonitrile) was “substantial conversion”; in series [3] (ethanol and 10:3 toluene/methanol mixture), “complete conversion”; in series [3] (other solvents), “the conversion was minimal”. The “Crystal modifications by XRPD, slurry experiment, after seeding” value is “α” in series [4] (96% ethanol, 50° C.); “α” in series [4] (96% ethanol, ambient); “α” in series [4] (acetonitrile, 50° C.); “α” in series [4] (setting [6]); “α” in series [4] (setting [7]). Further, the “Crystal modifications by XRPD, slurry experiment, before seeding” value is reported as “α” in series [4] (96% ethanol, 50° C.); “α” in series [4] (96% ethanol, ambient); “α” in series [4] (setting [6]). In addition, the “Crystal modifications by XRPD after ageing” value in series [5] (96% ethanol, 50° C.) is “α”; in series [5] (96% ethanol, ambient (ca. 20° C.), hydrochloride), “α”; in series [5] (setting [6]), “α”; in series [5] (setting [7]), “α”.
